Test results published in patent publication US8242055B2, “Herbicidally and insecticidally active phenyl-substituted pyridazinones” (Bayer Cropscience AG, priority 2008, dated 2012).

What was measured:
[1] = system: eggs of the tobacco bud worm (Heliothis virescens); experiment: Heliothis virescens test (spray treatment); type: in vivo; conditions: spray treatment of soybean leaves, application rate 500 g/ha, after 7 days; 100% = all eggs killed
Method: [table] To produce a suitable preparation of active compound, 1 part by weight of active compound is mixed with the stated amounts of solvents and emulsifier, and the concentrate is diluted with emulsifier-containing water to the desired concentration. Soybean leaves (Glycine max.) are sprayed with an active compound preparation of the desired concentration and, after drying, populated with eggs of the tobacco bud worm (Heliothis virescens). After 7 days, the effect in % is determined. 100% means that all the eggs have been killed; 0% means that none of the eggs have been killed.

Meloidogyne incognita = Meloidogyne incognita test (MELGIN); type: in vivo; conditions: application rate 20 ppm, lettuce roots; 100% = no galls formed
Method: [table] To produce a suitable preparation of active compound, 1 part by weight of active compound is mixed with the stated amounts of solvents and emulsifier, and the concentrate is diluted with water to the desired concentration. Containers are filled with sand, solution of active compound, Meloidogyne incognita egg/larvae suspension and lettuce seeds. The lettuce seeds germinate and the plants develop. On the roots, galls are formed. After the desired period of time, the nematicidal activity is determined in % by the formation of galls. 100% means that no galls are formed; 0% means that the number of galls on the treated plants corresponds to that of the untreated control.

**Q.** With `Cn1ncc(O)c(-c2ccc(Cl)c(Cl)c2)c1=O` [I-1-a-4, 4-(3,4-dichlorophenyl)-5-hydroxy-2-methyl-3(2H)-pyridazinone] as the compound, how does the melting point read?
**A.** The melting point was 315 °C.

**Q.** With `CC(C)(C)n1ncc(O)c(-c2ccc(Cl)cc2Cl)c1=O` [I-1-a-5] as the compound, how does the “effect in % (eggs killed)” value [1] read?
**A.** The value was “at least 80%”.

**Q.** For `CC(C)(C)n1ncc(O)c(-c2cc(-c3ccc(Cl)cc3)ccc2Cl)c1=O` [I-1-a-10], which “nematicidal activity in % by the formation of galls” value (Meloidogyne incognita) is on record?
**A.** Its value is “at least 80%”.
